Experimental data as given in PubChem BioAssay (NCI).
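All cell lines were grown in 96-well plates and treated with compound for 48 hours. At the GI50, growth is halved. TGI is the concentration that stops growth completely.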

Assays:
Experiment in all cases: NCI tumour cell line growth inhibition, 48 h
NCI-H23 lung = test system: NCI-H23 lung
COLO 205 colon = test system: COLO 205 colon
CAKI-1 renal = test system: CAKI-1 renal
SF-539 CNS = test system: SF-539 CNS
HS 578T breast = test system: HS 578T breast
HOP-92 NSCLC = test system: HOP-92 NSCLC
OVCAR-5 ovarian = test system: OVCAR-5 ovarian
M14 melanoma = test system: M14 melanoma
TK-10 renal = test system: TK-10 renal
NCI-H522 lung = test system: NCI-H522 lung
HL-60(TB) leukemia = test system: HL-60(TB) leukemia
MOLT-4 leukemia = test system: MOLT-4 leukemia
EKVX NSCLC = test system: EKVX NSCLC
SNB-75 CNS = test system: SNB-75 CNS
SK-MEL-28 melanoma = test system: SK-MEL-28 melanoma
IGROV1 ovarian = test system: IGROV1 ovarian
T-47D breast = test system: T-47D breast
HCC-2998 colon = test system: HCC-2998 colon
NCI/ADR-RES ovarian = test system: NCI/ADR-RES ovarian
BT-549 breast = test system: BT-549 breast
UO-31 renal = test system: UO-31 renal
OVCAR-4 ovarian = test system: OVCAR-4 ovarian
NCI-H226 lung = test system: NCI-H226 lung
RXF 393 renal = test system: RXF 393 renal
NCI-H460 lung = test system: NCI-H460 lung
HOP-62 NSCLC = test system: HOP-62 NSCLC
MCF7 breast = test system: MCF7 breast
MALME-3M melanoma = test system: MALME-3M melanoma
U251 CNS = test system: U251 CNS
K-562 leukemia = test system: K-562 leukemia
HT29 colon = test system: HT29 colon
MDA-MB-435 = test system: MDA-MB-435
ACHN renal = test system: ACHN renal
SK-OV-3 ovarian = test system: SK-OV-3 ovarian
DU-145 prostate = test system: DU-145 prostate
MDA-MB-468 breast = test system: MDA-MB-468 breast
A498 renal = test system: A498 renal
MDA-MB-231 breast = test system: MDA-MB-231 breast
HCT-116 colon = test system: HCT-116 colon
LOX IMVI melanoma = test system: LOX IMVI melanoma
SNB-19 CNS = test system: SNB-19 CNS
SK-MEL-5 melanoma = test system: SK-MEL-5 melanoma
SN12C renal = test system: SN12C renal
HCT-15 colon = test system: HCT-15 colon
KM12 colon = test system: KM12 colon
SK-MEL-2 melanoma = test system: SK-MEL-2 melanoma
UACC-62 melanoma = test system: UACC-62 melanoma
SW-620 colon = test system: SW-620 colon
PC-3 prostate = test system: PC-3 prostate
CCRF-CEM leukemia = test system: CCRF-CEM leukemia
OVCAR-8 ovarian = test system: OVCAR-8 ovarian
786-0 renal = test system: 786-0 renal
UACC-257 melanoma = test system: UACC-257 melanoma
RPMI-8226 leukemia = test system: RPMI-8226 leukemia
SF-295 CNS = test system: SF-295 CNS
OVCAR-3 ovarian = test system: OVCAR-3 ovarian
SF-268 CNS = test system: SF-268 CNS
SR leukemia = test system: SR leukemia
A549 NSCLC = test system: A549 NSCLC

`CCOP(=O)(CC(F)(F)C(F)(F)F)OCC` gave a GI50 (NCI-H23 lung) of 7.93 µM, a TGI (NCI-H23 lung) of 23.9 µM and a GI50 (COLO 205 colon) of 1.84 µM. For the same molecule, the TGI (COLO 205 colon) was 3.43 µM, the GI50 (CAKI-1 renal) was 3.06 µM and the TGI (CAKI-1 renal) was 10.6 µM. The GI50 (SF-539 CNS) was 2.02 µM, the TGI (SF-539 CNS) was 4.75 µM and the GI50 (HS 578T breast) was 5.55 µM. It also gave a TGI (HS 578T breast) of 94 µM, a GI50 (HOP-92 NSCLC) of 3.37 µM and a TGI (HOP-92 NSCLC) of 10.7 µM. It also gave a GI50 (OVCAR-5 ovarian) of 17.6 µM, a TGI (OVCAR-5 ovarian) of 32.5 µM and a GI50 (M14 melanoma) of 2.02 µM. For the same molecule, the TGI (M14 melanoma) was 5.31 µM, the GI50 (TK-10 renal) was 3.11 µM and the TGI (TK-10 renal) was 7.27 µM. For the same molecule, the GI50 (NCI-H522 lung) was 0.505 µM, the TGI (NCI-H522 lung) was 1.86 µM and the GI50 (HL-60(TB) leukemia) was 1.71 µM. The TGI (HL-60(TB) leukemia) was 5.89 µM, the GI50 (MOLT-4 leukemia) was 1.92 µM and the TGI (MOLT-4 leukemia) was 10.3 µM. For the same molecule, the GI50 (EKVX NSCLC) was 3.17 µM, the TGI (EKVX NSCLC) was 12.6 µM and the GI50 (SNB-75 CNS) was 1.95 µM. It also gave a TGI (SNB-75 CNS) of 36.7 µM, a GI50 (SK-MEL-28 melanoma) of 1.82 µM and a TGI (SK-MEL-28 melanoma) of 3.85 µM. The GI50 (IGROV1 ovarian) was 18.5 µM, the TGI (IGROV1 ovarian) was 38.8 µM and the GI50 (T-47D breast) was 2.19 µM. The TGI (T-47D breast) was 7.23 µM, the GI50 (HCC-2998 colon) was 12.2 µM and the TGI (HCC-2998 colon) was 25.2 µM. The GI50 (NCI/ADR-RES ovarian) was 2.31 µM, the TGI (NCI/ADR-RES ovarian) was 5.95 µM and the GI50 (BT-549 breast) was 4.17 µM. For the same molecule, the TGI (BT-549 breast) was 20.5 µM, the GI50 (UO-31 renal) was 2.82 µM and the TGI (UO-31 renal) was 10.9 µM. For the same molecule, the GI50 (OVCAR-4 ovarian) was 8.98 µM, the TGI (OVCAR-4 ovarian) was 23.9 µM and the GI50 (NCI-H226 lung) was 16.5 µM. The TGI (NCI-H226 lung) was 58.2 µM, the GI50 (RXF 393 renal) was 1.06 µM and the TGI (RXF 393 renal) was 2.37 µM. For the same molecule, the GI50 (NCI-H460 lung) was 17 µM, the TGI (NCI-H460 lung) was 37.5 µM and the GI50 (HOP-62 NSCLC) was 22.2 µM. It also gave a TGI (HOP-62 NSCLC) of 54.4 µM, a GI50 (MCF7 breast) of 2.45 µM and a TGI (MCF7 breast) of 12.1 µM. It also gave a GI50 (MALME-3M melanoma) of 1.83 µM, a TGI (MALME-3M melanoma) of 3.62 µM and a GI50 (U251 CNS) of 20.7 µM. The TGI (U251 CNS) was 60.2 µM, the GI50 (K-562 leukemia) was 2.62 µM and the TGI (K-562 leukemia) was 17.9 µM. The GI50 (HT29 colon) was 2.25 µM, the TGI (HT29 colon) was 4.96 µM and the GI50 (MDA-MB-435) was 3.31 µM. For the same molecule, the TGI (MDA-MB-435) was 14.5 µM, the GI50 (ACHN renal) was 1.86 µM and the TGI (ACHN renal) was 3.55 µM. It also gave a GI50 (SK-OV-3 ovarian) of 27.4 µM, a TGI (SK-OV-3 ovarian) of 74.8 µM and a GI50 (DU-145 prostate) of 5.56 µM. For the same molecule, the TGI (DU-145 prostate) was 18.4 µM, the GI50 (MDA-MB-468 breast) was 1.24 µM and the TGI (MDA-MB-468 breast) was 2.99 µM. It also gave a GI50 (A498 renal) of 19.7 µM, a TGI (A498 renal) of 37 µM and a GI50 (MDA-MB-231 breast) of 3.43 µM. The TGI (MDA-MB-231 breast) was 12.3 µM, the GI50 (HCT-116 colon) was 1.86 µM and the TGI (HCT-116 colon) was 4.86 µM. The GI50 (LOX IMVI melanoma) was 1.78 µM, the TGI (LOX IMVI melanoma) was 3.91 µM and the GI50 (SNB-19 CNS) was 26.2 µM. For the same molecule, the TGI (SNB-19 CNS) was over 100 µM, the GI50 (SK-MEL-5 melanoma) was 3.38 µM and the TGI (SK-MEL-5 melanoma) was 13.7 µM. For the same molecule, the GI50 (SN12C renal) was 16.6 µM, the TGI (SN12C renal) was 42.2 µM and the GI50 (HCT-15 colon) was 1.56 µM. The TGI (HCT-15 colon) was 3.73 µM, the GI50 (KM12 colon) was 17.2 µM and the TGI (KM12 colon) was 33.6 µM. It also gave a GI50 (SK-MEL-2 melanoma) of 17.3 µM, a TGI (SK-MEL-2 melanoma) of 39.2 µM and a GI50 (UACC-62 melanoma) of 2.35 µM. It also gave a TGI (UACC-62 melanoma) of 8.87 µM, a GI50 (SW-620 colon) of 1.83 µM and a TGI (SW-620 colon) of 3.92 µM. The GI50 (PC-3 prostate) was 4.6 µM, the TGI (PC-3 prostate) was 25.6 µM and the GI50 (CCRF-CEM leukemia) was 2.9 µM. For the same molecule, the TGI (CCRF-CEM leukemia) was 15.8 µM, the GI50 (OVCAR-8 ovarian) was 3.79 µM and the TGI (OVCAR-8 ovarian) was 55.3 µM. For the same molecule, the GI50 (786-0 renal) was 4.2 µM, the TGI (786-0 renal) was 16.8 µM and the GI50 (UACC-257 melanoma) was 2.57 µM. For the same molecule, the TGI (UACC-257 melanoma) was 11.1 µM, the GI50 (RPMI-8226 leukemia) was 3.44 µM and the TGI (RPMI-8226 leukemia) was 13.1 µM. The GI50 (SF-295 CNS) was 15.6 µM, the TGI (SF-295 CNS) was 33.2 µM and the GI50 (OVCAR-3 ovarian) was 2.76 µM. It also gave a TGI (OVCAR-3 ovarian) of 7.98 µM, a GI50 (SF-268 CNS) of 17.9 µM and a TGI (SF-268 CNS) of 54.4 µM. The GI50 (SR leukemia) was 2.4 µM, the TGI (SR leukemia) was 11.5 µM and the GI50 (A549 NSCLC) was 30.7 µM. The TGI (A549 NSCLC) was over 100 µM.
